Patent US12059482B2, “Activity-based probe compounds, compositions, and methods of use” (THE BOARD OF TRUSTEES OF THE LELAND STANFORD JUNIOR …, priority 2016, dated 2024)

Tested on: cysteine cathepsins
Assay: inhibition of probe labeling in living RAW cells by JPM-OEt pretreatment
Assay type: cell-based, mouse
Details: JPM-OEt pre-treatment (50 μM, 1 hr)
Procedure: RAW cells were cultured in DMEM (GIBCO) supplemented with 10% fetal bovine serum (FBS; GIBCO), 100 units/mL penicillin and 100 μg/mL streptomycin (GIBCO). 4T1 cells (ATCC) were cultured in RPMI (GIBCO) supplemented with 10% fetal bovine serum (FBS; GIBCO), 100 units/mL penicillin and 100 μg/mL streptomycin (GIBCO). All cells were cultured in a 5% CO2 humidified incubator at 37° C. For intact cell labeling, cells were exposed to probe (500× in DMSO) in culture media and incubated for 2 hr at 37° C., unless stated otherwise. Where indicated the cells were preincubated for 1 hr with the inhibitor JPM-OEt (500× in DMSO) or exposed to mouse serum (1 μl probe stock solution in DMSO added to 9 μl serum) for 4 hr before addition to the cells. After labeling, the cells were washed with PBS and resuspended in hypotonic lysis buffer (50 mM PIPES pH 7.4, 10 mM KCl, 5 mM MgCl2, 2 mM EDTA, 4 mM DTT, and 1% NP-40) and put on ice for 15 min, centrifuged at 4° C. for 30 min and supernatants were collected, and protein concentration was determined using a BCA kit (pierce). […] Labeling intensities were quantified using Image J software. […] After 15 min on ice and centrifugation at 4° C. for 30 min the supernatants were collected, and protein concentration was determined using a BCA kit (pierce). […] 4× SDS-sample buffer was added and the protein was denatured for 3 min at 100° C. and analyzed as described above. […]

## JPM-OEt
  blocking of probe labeling: more than 90%
